Assay results published in paper PMC11758220, “Identification of a Privileged Scaffold for Inhibition of Sterol Transport Proteins through the Synthesis and Ring Distortion of Diverse, Pseudo-Natural Products” (ACS Central Science, 2025).

Columns and labels:
Type in all cases: binding
OSBP = target: T1, OSBP (Homo sapiens, UniProt P22059); experiment: Fluorescence polarisation (FP) competition with NBD-cholesterol, OSBP; conditions: single dose; for OSBP (FP) inhibition: Dose = 10 µM
T1 construct: OSBP(377-807); host or cells: E. coli OverExpress C41
T1 sequence (P22059 377-807): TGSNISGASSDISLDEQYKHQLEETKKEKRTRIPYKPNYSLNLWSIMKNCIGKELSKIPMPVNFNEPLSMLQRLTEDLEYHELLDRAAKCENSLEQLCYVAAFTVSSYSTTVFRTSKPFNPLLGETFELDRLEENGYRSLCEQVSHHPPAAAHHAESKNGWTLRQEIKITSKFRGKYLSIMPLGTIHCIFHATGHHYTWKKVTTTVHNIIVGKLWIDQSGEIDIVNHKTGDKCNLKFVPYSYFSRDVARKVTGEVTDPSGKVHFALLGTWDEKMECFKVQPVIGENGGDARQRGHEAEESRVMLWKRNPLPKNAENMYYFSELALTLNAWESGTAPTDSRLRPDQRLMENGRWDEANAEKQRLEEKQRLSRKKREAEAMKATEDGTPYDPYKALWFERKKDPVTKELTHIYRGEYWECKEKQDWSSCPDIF
From the text: (§1) Protein expression constructs
(§2) Human ASTER domains of Aster-A(359-547), -B(364-552) and -C(318-504) were subcloned into a pGEX-6p-2rbs vector, thus introducing the cloning artifact ‘GPLGS’.3 The pGEX-6P-1-GST-OSBP(377- […]
(§3) a gift from James H. Hurley (University of California).4 The pHIS_2His6_Thrombin_STARD4(2-205;C75S) plasmid was a gift from Young Jun Im (Chonnam National University).5 STARD5A was a gift from Nicola Burgess-Brown (Addgene plasmid #42392; http://n2t.net/addgene:42392; […]
(§4) Protein expression and purification […]
(§5) vectors including an N-terminal PreScission-cleavable glutathione S-transferase (GST)-tag were expressed in Escherichia coli (E. coli) OverExpress C41 in Terrific Broth (TB) medium for 16 h at 18 °C after the induction with 0.1 mM isopropyl β-D-1-thiogalactopyranoside (IPTG). Cells were harvested at 3500 × g for 15 minutes and lysed by sonication in buffer containing 50 mM HEPES pH 7.5, 300 mM NaCl, 10 %v/v glycerol, 5 mM dithiothreitol (DTT), 0.1 %v/v Triton X-100 and protease inhibitor mix HP plus (Serva). The lysate was purified by affinity chromatography on a GSTrap FF column (Cytiva) using an ÄKTA Start (Cytiva) in buffer containing 50 mM HEPES pH 7.5, 300 mM NaCl, 10 %v/v glycerol, 5 mM DTT and 0.01 %v/v Triton X-100. The GST-tag was cleaved overnight on the column at 4 °C. The Aster sterol binding domains were further purified by size-exclusion chromatography (SEC) on a HiLoad 16/600 Superdex 75 pg (Cytiva) in buffer containing 20 mM HEPES pH 7.5, 300 mM NaCl, 10 %v/v […]
(§6) STARD5(6-213) harboring an N-terminal His6-Tag were expressed in E. coli BL21(DE3) in Luria-Bertani Broth (LB) medium for approximately 16 h at 18 °C after induction with 0.15 mM IPTG. Cells were harvested at 3500 × g for 15 minutes and lysed by sonication in buffer containing 50 mM HEPES pH 7.5, 150 mM NaCl, 5 %v/v glycerol, 5 mM DTT, 0.1 %v/v Triton X -100 and ethylenediaminetetraacetic acid (EDTA)-free protease inhibitor cocktail (Sigma-Aldrich). The cleared lysate was purified by affinity chromatography on a Ni-NTA Superflow Cartridge (Qiagen) using an ÄKTA Start (Cytiva) in buffer containing 50 mM HEPES pH 7.5, 150 mM NaCl, 5 %v/v glycerol, 5 mM DTT. START domains were eluted by using elution buffer containing 50 mM HEPES pH 7.5, 150 mM NaCl, 5 %v/v glycerol, 5 mM DTT and 500 mM imidazole. Proteins were further purified by SEC on a HiLoad 16/600 Superdex 75 pg (Cytiva) in buffer containing 20 mM HEPES pH 7.5, 150 mM NaCl, 5 %v/v glycerol and 2 mM DTT.
(§7) The ORP domain of human OSBP(377-807) in the pGEX-6p-1 vector with an N-terminal PreScission-cleavable GST-tag was expressed in E. coli OverExpress C41 in LB medium for 16 h at 18 °C after induction with 0.1 mM IPTG. Cells were harvested at 3500 × g for 15 minutes and lysed by sonication in buffer containing 20 mM HEPES pH 7.5, 300 mM NaCl, 10 %v/v glycerol, 5 mM DTT, 0.1 %v/v Triton X-100 and EDTA-free protease inhibitor cocktail (Sigma-Aldrich). The cleared lysate was purified by affinity chromatography on a GSTrap HF column (Cytiva) using an ÄKTA Start (Cytiva) in buffer containing 20 mM HEPES pH 7.5, 300 mM NaCl, 10 %v/v glycerol, 5 mM DTT. OSBP(377 -807) was eluted by using elution buffer containing 20 mM HEPES pH 7.5, 300 mM NaCl, 10 %v/v glycerol, 5 mM DTT and 10 mM reduced glutathione. Proteins were further purified by SEC on a HiLoad 16/600 Superdex 75 pg (Cytiva) using an ÄKTA Explorer (Cytiva) in buffer containing 20 mM HEPES pH 7.5, 150 mM NaCl, 10 %v/v glycerol and 2 mM DTT.
(§8) The ORP domains of human ORP1(534-950) in pET24b(+) and ORP2(49-480) in the pET24b(+) vector including an N-terminal His6-Tag were expressed in E. coli BL21(DE3) in TB medium for approximately 16 h at 18 °C after induction with 0.1 mM IPTG. Cells were collected at 3500 × g for 15 minutes and lysed by sonification in buffer containing 10 mM Tris-HCl pH 8, 300 mM NaCl, 5 % glycerol, 2 mM DTT, 0.1 % Triton X-100 and EDTA-free protease inhibitor cocktail (Sigma-Aldrich). The cleared […]

Aster-C = target: T2, Aster-C (Homo sapiens, UniProt Q8IYS0); experiment: Fluorescence polarisation (FP) competition with NBD-cholesterol, Aster-C; conditions: for Aster-C (FP) inhibition / inhibition at 10 µM: single dose, Dose = 10 µM
T2 construct: -C(318-504); GST (PreScission-cleavable) (N, cleaved yes); made in house; host or cells: E. coli OverExpress C41
From the text: as §1, §2, §3, §4, §5, §6, §7, §8

STARD3 = target: T3, STARD3 (Homo sapiens, UniProt Q14849); experiment: Differential scanning fluorimetry (DSF), STARD3; conditions: single dose, Dose = 10 µM
T3 construct: STARD3(216-444); made in house; host or cells: E. coli BL21(DE3)
T3 sequence (Q14849 216-444): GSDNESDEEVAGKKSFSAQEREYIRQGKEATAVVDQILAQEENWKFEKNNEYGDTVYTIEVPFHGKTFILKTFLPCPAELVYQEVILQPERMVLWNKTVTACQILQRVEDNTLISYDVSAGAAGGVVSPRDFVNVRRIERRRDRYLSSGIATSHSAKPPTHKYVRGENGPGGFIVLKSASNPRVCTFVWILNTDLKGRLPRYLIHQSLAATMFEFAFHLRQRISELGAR
From the text: as §1, §2, §3, §4, §5, §6, §7, §8

T2 sequence (Q8IYS0 318-504): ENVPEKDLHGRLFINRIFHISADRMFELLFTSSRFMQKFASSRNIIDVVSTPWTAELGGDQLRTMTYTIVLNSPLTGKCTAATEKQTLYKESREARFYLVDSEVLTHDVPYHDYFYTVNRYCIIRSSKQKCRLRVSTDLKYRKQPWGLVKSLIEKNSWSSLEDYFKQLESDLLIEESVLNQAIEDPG

SMILES | OSBP (FP) inhibition (OSBP) [%] | Aster-C (FP) inhibition (Aster-C) [%] | STARD3 (DSF) ΔTm (STARD3) [°C] | inhibition at 10 µM (OSBP) [%] | inhibition at 10 µM (Aster-C) [%] | ΔTm at 10 µM (STARD3) [°C] | IC50 (Aster-C; mean of three experiments run in technical duplicates) [µM]
Cc1nc2c(s1)CC[C@@H]1C[C@H](O)CC[C@]21C [Compound 8b] | -1.3 | -1.6 | 0.0139 | – | – | – | –
C[C@]12CC[C@@H](O)C[C@H]1CCc1sc(-c3cccnc3)nc12 [Compound 8c] | 17.3 | 0 | 0.345 | – | – | – | –
COc1ccc(-c2nc3c(s2)CC[C@@H]2C[C@H](O)CC[C@]32C)cc1 [Compound 8d] | – | – | – | 2.6 | 0.8 | 0.5 | –
C[C@]12CC[C@@H](O)C[C@H]1CCc1sc(-c3ccc(F)cc3)nc12 [Compound 8e] | 1.3 | -2.4 | 0.0572 | – | – | – | –
C[C@]12CC[C@@H](O)C[C@H]1CCc1[nH]c(-c3ccccc3)nc12 [Compound 9] | – | – | – | 5 | -3.2 | -0.0297 | –
C[C@]12CC[C@@H](O)C[C@H]1CCc1c2[nH]c2ccccc12 [Compound 10a] | 1.3 | 0.8 | -0.188 | – | – | – | –
C[C@]12CC[C@@H](O)C[C@H]1CCc1c2[nH]c2ccc(Br)cc12 [Compound 10b] | -12.0 | -5 | -0.0462 | – | – | – | –
C[C@]12CC[C@@H](O)C[C@H]1CCc1c2[nH]c2ccc(Cl)cc12 [Compound 10c] | -10.0 | -8 | -0.121 | – | – | – | –
C[C@]12CC[C@@H](O)C[C@H]1CCc1c2[nH]c2ccc(F)cc12 [Compound 10d] | -7.0 | -3.2 | -0.115 | – | – | – | –
Cc1ccc2[nH]c3c(c2c1)CC[C@@H]1C[C@H](O)CC[C@]31C [Compound 10e] | – | – | – | -1.3 | 1.6 | 0.0774 | –
COc1ccc2[nH]c3c(c2c1)CC[C@@H]1C[C@H](O)CC[C@]31C [Compound 10f] | – | – | – | -6.7 | 0 | -0.0471 | –
CC12CCC(O)CC1CCc1c2[nH]c2ccc(C(F)(F)F)cc12 (stereo not shown) [Compound 10g] | – | – | – | -8 | -5 | 0.227 | –
C[C@]12CC[C@@H](O)C[C@H]1CCc1c2[nH]c2ccc(I)cc12 [Compound 10h] | 18.7 | 24 | 0.1 | – | – | – | –
C[C@]12CC[C@@H](O)C[C@H]1CCc1c2[nH]c2c(F)cc(Cl)cc12 [Compound 10i] | – | – | – | -9.3 | -1.6 | 0.0372 | –
Cc1cc(C)c2c3c([nH]c2c1)[C@@]1(C)CC[C@@H](O)C[C@H]1CC3 [Compound 10j] | – | – | – | -16 | 0.8 | -0.108 | –
CCOC(=O)c1ccc2[nH]c3c(c2c1)CC[C@@H]1C[C@H](O)CC[C@]31C [Compound 10k] | 2.0 | -6 | 0.08 | – | – | – | –
C[C@]12CC[C@@H](O)C[C@H]1CCC(=O)c1ccccc1NC2=O [Compound 11a] | 2.7 | -3.2 | -0.0327 | – | – | – | –
C[C@]12CC[C@@H](O)C[C@H]1CCC(=O)c1cc(Br)ccc1NC2=O [Compound 11b] | – | – | – | 12 | -2.4 | -0.0537 | –
Cc1ccc2c(c1)C(=O)CC[C@@H]1C[C@H](O)CC[C@]1(C)C(=O)N2 [Compound 11c] | – | – | – | 18.7 | -5.6 | -0.0522 | –
COc1ccc2c(c1)C(=O)CC[C@@H]1C[C@H](O)CC[C@]1(C)C(=O)N2 [Compound 11d] | – | – | – | -5.3 | 1.6 | -0.119 | –
C[C@]12CC[C@@H](O)C[C@H]1CCC(=O)c1cc(C(F)(F)F)ccc1NC2=O [Compound 11e] | – | – | – | 15 | -1.6 | -0.0434 | –
C[C@]12CC[C@@H](O)C[C@H]1CCC(=O)c1cc(Cl)cc(F)c1NC2=O [Compound 11f] | 9.0 | -0.8 | -0.0767 | – | – | – | –
Cc1cc(C)c2c(c1)NC(=O)[C@@]1(C)CC[C@@H](O)C[C@H]1CCC2=O [Compound 11g] | – | – | – | -5.3 | -0.8 | -0.0181 | –
Cc1ccc2[nH]c3c(c(=O)c2c1)C[C@@H]1C[C@H](O)CC[C@]31C [Compound 12] | – | – | – | 2 | 0 | -0.0694 | –
Cc1ccc2c(c1)[C@]1(O)CC[C@@H]3C[C@H](O)CC[C@]3(C)C1=N2 [Compound 14a] | – | – | – | 17.3 | -1 | 0.2 | –
COc1ccc2c(c1)[C@]1(O)CC[C@@H]3C[C@H](O)CC[C@]3(C)C1=N2 [Compound 14b] | – | – | – | 9.3 | 3.2 | 0.0447 | –
Cc1cc(C)c2c(c1)N=C1[C@@]2(O)CC[C@@H]2C[C@H](O)CC[C@]12C [Compound 14c] | – | – | – | 2.7 | 3.2 | 0.0424 | –
C[C@]12CC[C@@H]3C[C@H]1CC[C@@]21C(=Nc2ccccc21)O3 [Compound 15a] | – | – | – | 0 | -4 | -0.061 | > 80
